Source: patent US11464854B2, “Methods and compositions relating to adjuvants” (Children's Medical Center Corporation, priority 2017, dated 2022)

Assays:
[1] = tested on: FHA (B. pertussis filamentous hemagglutinin); experiment: Adult mouse immunization with Infanrix (DTaP), anti-FHA serum antibody titers; assay type: in vivo, Balb/c mice; settings: 14 days post primary and secondary
Method: For immunization experiments, both neonate and adult mice were immunized intramuscularly (i.m.) in the posterior thigh with 50 μl of total vaccine dose. For adult mouse studies, Balb/c mice (6-8 weeks of age) were immunized with Infanrix (GSK, 1/100th of the human dose)±CRX649 or CRX-727 at 0.1 μg, 1 μg or 10 μg per mouse in different formulations (aqueous choline salt, liposome or alum pre-adsorbed). Serum was harvested 14 days following prime (14dp1) or boost (14dp2) and anti-FHA serum antibody IgG1 and IgG2a titers were measured by ELISA, as described below. For neonatal mouse studies, 7 day old Balb/c and C57BL/6 mice were immunized with a prime-boost schedule (two injections one week apart, for newborn mice at DOL 7 and 14). Serum was harvested 14 days following boost (14dp2) (day of life 28) and anti-FHA serum total IgG titers, IgG1 and IgG2a/IgG2c were measured by ELISA.
For anti-filamentous hemagglutinin (FHA) ELISAs, Nunc MaxiSorp™ flat bottom 96-well plates (ThermoFisher Scientific) were coated with 5 μg/ml FHA (B. pertussis Filamentous Hemagglutinin, Strain: NCTC 10739, The Native Antigen Company/Cedarlane, Burlington, N.C.) in carbonate buffer pH 9.6, incubated overnight at 4° C., washed 3× with wash buffer (KPL 10× Phosphate Buffered Saline with Tween 20 (Fisher Scientific)) and blocked with Superblock™ (ScyTek) for 1 h at room temperature (RT). […]

[2] = Adsorption onto alum derived from DTaP vaccine (RP-HPLC); assay type: physicochemical; settings: within 1-2 hr, all circumstances tested
[3] = tested on: PnPS-specific B cells; experiment: Pneumococcal polysaccharide-specific B cells (ELISpot); assay type: in vivo, rhesus macaques (Macaca mulatta); settings: control condition, adjuvant alone
Source text: Characterization of pneumococcal polysaccharide-specific B cells. Rhesus macaque peripheral blood mononuclear cells (PBMCs) were labeled with anti-CD14-PE (clone M5E2), CD20-V450 (clone L27), CD27-PE.Cy7 (clone M-T271), CD4-FITC (clone SK3) Ab's (BD Biosciences). Sorting of CD14+ monocytes, CD20+CD27− naïve B cells, CD20+CD27+ memory B cells, and CD4+Th cells employed a FACSAria™ II cell sorter. Anti-pneumococcal B cells in peripheral blood were enumerated in sorted B cell populations. […] Secreted immunoglobulins were detected using horseradish peroxidase-conjugated goat-anti-rhesus immunoglobulin (Nordic Immunological Laboratories; Eindhoven, The Netherlands). Spots were developed using 3,3′,5,5′-Tetramethylbenzidine (TMB) (Mabtech, Mariemont; OH, USA) and visualized and counted using a series 5 ELISpot™ analyzer (Cellular Technology Limited, Shaker Heights; OH, USA). The fraction of pneumococcal polysaccharide-specific B cells was quantified as the ratio of the spots detected in polysaccharide-coated wells to spots detected in immunoglobulin-coated wells, after correction for dilution.

[4] = tested on: human neonatal and adult blood; experiment: Human whole blood assay, cytokine induction (3M-052, PCV13); assay type: cell-based; settings: 6 hours, concentration-dependent, each agent alone
Source text: Human blood sample processing and in vitro stimulation. Peripheral blood was collected from healthy adult volunteers, while human newborn cord blood was collected immediately after Cesarean section delivery of the placenta. Births to known HIV-positive mothers were excluded. Human experimentation guidelines of the U.S. Department of Health and Human Services, The Brigham & Women's Hospital, Beth Israel Deaconess Medical Center Boston, and Boston Children's Hospital were observed, following protocols approved by the local institutional review boards. Human blood was anti-coagulated with 20 units/ml pyrogen-free sodium heparin (American Pharmaceutical Partners, Inc.; Schaumberg, Ill.). All blood products were kept at room temperature and processed within 4 hours from collection. […] Additionally, whole blood assay supernatants were analyzed by multiplex cytokine assays (Millipore; Billerica, Mass., USA). […]
TLR agonists and multi-analyte assays. […] Cytokine and chemokine expression profiles in cell culture supernatants and peripheral blood plasma were measured using customized Milliplex human and non-human primate cytokine/chemokine magnetic bead panels (Millipore), respectively. Assays were analyzed on the Luminex® 100/200™ System employing xPOTENT® software (Luminex; Austin, Tex.) and Millipore Milliplex Analyst (version 3.5.5.0).

## CCCCc1nc2c(N)nc3ccccc3c2n1CCO [CRX-649]
[1]
  anti-FHA IgG1 or IgG2a antibody titers: not able to enhance
[2]
  adsorption to the alum/antigen: 4-7%

## CCCCCCCCCCCCCCCCCC(=O)NCCCCOn1c(CCCC)nc2c(N)nc3ccccc3c21 [3M-052, N-[4-[(4-amino-2-butyl-1H-imidazo[4,5-c]quinolin-1-yl)oxy]butyl]octadecanamide]
[3]
  non-specific polysaccharide in vitro activation of B cells: ≤ 1.0%
[4]
  production of TNF: significantly inducing production of TNF over baseline
